Laboratory results taken from patent publication US20240335406A1, “COMPOUNDED COMPOSITIONS AND METHODS FOR TREATING PAIN” (CMPD Licensing, LLC, priority 2016, published 2024).
Where a name gives a salt, the structure may show the parent alone.

Test: Potency test of the compounded topical solution of Example 1 (HPLC with UV/photodiode array detector)
Format: physicochemical
Conditions: for Measured: concentration of analyte in compounded topical solution of Example 1; for Potency: measured vs reported concentration, compounded topical solution of Example 1
Experimental: Diclofenac sodium topical solution, 1.5% (w/w), includes approximately 16.05 mg diclofenac sodium per mL. Accordingly, approximately 0.9167 mL of diclofenac sodium topical solution, 1.5% (w/w), was measured for every mL of compounded topical solution. […] The measured ingredients where combined in a beaker. The beaker was placed on a magnetic stirring plate and a stir bar was placed in the beaker and rotated at a speed to create a small vortex for 5 minutes. The stirred solution was then placed in containers.

Structure (SMILES)	Measured [%]	Potency [%]
O=C(O)Cc1ccccc1Nc1c(Cl)cccc1Cl [Diclofenac Sodium]	1.51	103
CCN(CC)CC(=O)Nc1c(C)cccc1C [Lidocaine HCl, Lidocaine Hydrochloride]	0.336	101
